Reference: patent publication US6610748B1, “Preventives/remedies for skin aging” (Fujisawa Pharmaceutical Co., Ltd., priority 1998, dated 2003)
Entries after “also recorded” stand apart in the source; their conditions may differ. Where a name gives a salt, the structure may show the parent alone. Read-outs that look alike come from different tables or passages of the source.

How the values were obtained:
[1] = qualitative, by solvent, cited from earlier work
[2] = system: hairless dogs; assay: Skin condition (remission of wrinkles) in old hairless dogs, gross observation and video macroscope; type: in vivo, dog; settings: 0.2% and 0.02% in PEG
Method: (§1) The therapeutic efficacy of neutrophil (leukocyte) elastase inhibitors in “dermal aging” was evaluated in hairless dogs.
(§2) Two adult (old) experimental hairless dogs constructed by cross-breeding of a Mexican hairless dog and a beagle dog were used. Old dogs presenting with age-associated fine “wrinkles” , not observed in young dogs, on the body surface were used as subject animals.
5) Polyethylene glycol (PEG) (solvent control) (PEG was used as the solvent for drugs 1˜4)
(§3) Each drug was applied in one location (a total of 5 locations) on the back (5×5 cm) of each dog. The drug was applied in a dosing volume of about 4 μL/cm^2 once daily (except on Saturdays, Sundays and holidays) for 3 months.
1) Skin condition: Gross observation and observation with a video macroscope

[3] = system: hairless dogs; assay: Skin thickness: thickness of the epidermis (excluding the horny layer) in H-E stained tissue samples of old hairless dogs; type: in vivo, dog; settings: for Thickness of the epidermis, value after the arrow (after treatment): FK706 0.2% topical once daily for 3 months; for Thickness of the epidermis, value after the arrow (after treatment) / Thickness of the epidermis, value before the arrow (initial): mean±SD
Method: as §1, §2, §3

[4] = system: hairless dogs; assay: Histology of biopsy samples from old hairless dogs (van Gieson's stain, Weigert's stain); type: in vivo; settings: Dog No. 8807, 3 months
Method: The therapeutic efficacy of neutrophil (leukocyte) elastase inhibitors in “dermal aging” was evaluated in hairless dogs. Two adult (old) experimental hairless dogs constructed by cross-breeding of a Mexican hairless dog and a beagle dog were used. Old dogs presenting with age-associated fine “wrinkles” , not observed in young dogs, on the body surface were used as subject animals. Each drug was applied in one location (a total of 5 locations) on the back (5×5 cm) of each dog. The drug was applied in a dosing volume of about 4 μL/cm^2 once daily (except on Saturdays, Sundays and holidays) for 3 months. 2) Histology: Observation of histological changes in biopsy samples by H-E (hematoxylin-eosin) stain (general staining) , van Gieson's stain (staining of collagen fiber) and Weigert's stain (staining of elastin fiber)

[5] = gross observation, dog No. 8807 (10 yr old, male), about 4 μL/cm2 on the back once daily for 3 months
[6] = gross observation, dog No. 8808 (10 yr old, female), about 4 μL/cm2 on the back once daily for 3 months
[7] = observation with a video macroscope, dog No. 8807, once daily for 3 months
[8] = observation with a video macroscope, dog No. 8808, once daily for 3 months

Compound	Solubility ([1]; dipotassium salt)	Solubility ([1]; disodium salt)	Order of efficacy in the elimination or remission of wrinkles [2, 5]	Order of efficacy in the elimination or remission of wrinkles [2, 6]	Order of efficacy in the elimination or remission of wrinkles [2, 7]	Order of efficacy in the elimination or remission of wrinkles [2, 8]	Thickness of the epidermis, value after the arrow (after treatment) ([3]; Dog No. 8807)	Thickness of the epidermis, value before the arrow (initial) ([3]; Dog No. 8807, location treated with FK706 0.2%)	Thickness of the epidermis, value after the arrow (after treatment) ([3]; Dog No. 8808)	Thickness of the epidermis, value before the arrow (initial) ([3]; Dog No. 8808, location treated with FK706 0.2%)	Change in thickness of the epidermis ([3]; location treated with FK706 0.2%, p<0.05 in both Dog 8807 and Dog 8808)	Histological finding, Weigert's stain (elastin fiber) ([4]; topical)	Histological finding, van Gieson's stain (collagen fiber) ([4]; FK706 0.2% topical)
WS7622A disulfate ester dipotassium salt	Soluble: water, methanol; also recorded: Insoluble: chloroform, n-hexane	–	–	–	–	–	–	–	–	–	–	–	–
C/C=C1\NC(=O)C2NC(=O)C(NC(=O)C(C)C)CCCNC(=O)Nc3cc(OS(=O)(=O)O)c(OS(=O)(=O)O)cc3C[C@@H](C(=O)NC(C(C)C)C(=O)OC2C)N(C)C(=O)C(Cc2ccccc2)N2C(=O)[C@H](CC[C@H]2O)NC1=O (some centres unmarked) [FR134043, WS7622A disulfate ester disodium salt]	–	Soluble: water, methanol; also recorded: Insoluble: chloroform, n-hexane	FK706·0.1%>FK706·0.02%>FR134043·0.2%=FR134043·0.02%	FK706·0.2%>FK706·0.02%>FR134043·0.2%=FR134043·0.02%	FK706·0.2%>FK706·0.02%>FR134043·0.2%>FR134043·0.02%	FK706·0.2%=FK706·0.02%>FR134043·0.2%=FR134043 0.02%	–	–	–	–	–	–	–
CC(C)C(NC(=O)[C@@H]1CCCN1C(=O)[C@@H](NC(=O)c1ccc(C(=O)NCC(=O)O)cc1)C(C)C)C(=O)C(F)(F)F (mixture of isomers) [FK706, 3 (RS)-[[4-(carboxymethylaminocarbonyl)phenyl-carbonyl]-L-valyl-L-prolyl]amino-1,1,1-trifluoro-4-methyl-2-oxopentane]	–	–	FK706·0.1%>FK706·0.02%>FR134043·0.2%=FR134043·0.02%	FK706·0.2%>FK706·0.02%>FR134043·0.2%=FR134043·0.02%	FK706·0.2%>FK706·0.02%>FR134043·0.2%>FR134043·0.02%	FK706·0.2%=FK706·0.02%>FR134043·0.2%=FR134043 0.02%	26.8±5.9 μm	17.0±1.9 μm	42.0±9.0 μm	24.6±3.6 μm	increased significantly	Growth of elastin fibrils (suspected to be oxytalan fiber which is said to disappear as increasing age) was found across the boundary between the epidermis and dermis	Neogenesis of a thin layer of collagen fiber was found across the boundary between the epidermis and dermis
